Where a name gives a salt, the structure may show the parent alone. Read-outs that look alike come from different tables or passages of the source.

One may read the EC50 as the concentration giving half of the maximal effect. The Km is the concentration of substrate that gives half-maximal velocity. By IC50 is commonly meant the concentration needed to halve the response being measured. The low end stands for inhibition by little substance, the high end for a need for much substance. Broadly, the half-life is how long it takes for the measured level to halve. For orientation: EC90 means the concentration needed for an effect of 90%.

The conditions of data set [1]: in vivo; cited from earlier work.
The subject of data set [2] is HIV-1. To be noted: T-cell lines; cited from earlier work.
Data set [3] deals with HIV-1. To be noted: PBMC; cited from earlier work.
For data set [4] the following is noted: in vivo; cited from earlier work. This is another data set of the same source.
In data set [5] the test system is HIV-1. The following applies: cited from earlier work; for Impact of monotherapy: log decrease in HIV-1 RNA: for six months to one year.
The conditions of data set [6]: in vivo; cited from earlier work. This is another data set of the same source.
The next data set concerns the target human DNA polymerase ε (Homo sapiens, UniProt Q07864). To be noted: dCTP over dFdCTP; cited from earlier work.
Another data set concerns the target T1, human DNA polymerase a (Homo sapiens, UniProt P09884).
T1 sequence (P09884 1-1462): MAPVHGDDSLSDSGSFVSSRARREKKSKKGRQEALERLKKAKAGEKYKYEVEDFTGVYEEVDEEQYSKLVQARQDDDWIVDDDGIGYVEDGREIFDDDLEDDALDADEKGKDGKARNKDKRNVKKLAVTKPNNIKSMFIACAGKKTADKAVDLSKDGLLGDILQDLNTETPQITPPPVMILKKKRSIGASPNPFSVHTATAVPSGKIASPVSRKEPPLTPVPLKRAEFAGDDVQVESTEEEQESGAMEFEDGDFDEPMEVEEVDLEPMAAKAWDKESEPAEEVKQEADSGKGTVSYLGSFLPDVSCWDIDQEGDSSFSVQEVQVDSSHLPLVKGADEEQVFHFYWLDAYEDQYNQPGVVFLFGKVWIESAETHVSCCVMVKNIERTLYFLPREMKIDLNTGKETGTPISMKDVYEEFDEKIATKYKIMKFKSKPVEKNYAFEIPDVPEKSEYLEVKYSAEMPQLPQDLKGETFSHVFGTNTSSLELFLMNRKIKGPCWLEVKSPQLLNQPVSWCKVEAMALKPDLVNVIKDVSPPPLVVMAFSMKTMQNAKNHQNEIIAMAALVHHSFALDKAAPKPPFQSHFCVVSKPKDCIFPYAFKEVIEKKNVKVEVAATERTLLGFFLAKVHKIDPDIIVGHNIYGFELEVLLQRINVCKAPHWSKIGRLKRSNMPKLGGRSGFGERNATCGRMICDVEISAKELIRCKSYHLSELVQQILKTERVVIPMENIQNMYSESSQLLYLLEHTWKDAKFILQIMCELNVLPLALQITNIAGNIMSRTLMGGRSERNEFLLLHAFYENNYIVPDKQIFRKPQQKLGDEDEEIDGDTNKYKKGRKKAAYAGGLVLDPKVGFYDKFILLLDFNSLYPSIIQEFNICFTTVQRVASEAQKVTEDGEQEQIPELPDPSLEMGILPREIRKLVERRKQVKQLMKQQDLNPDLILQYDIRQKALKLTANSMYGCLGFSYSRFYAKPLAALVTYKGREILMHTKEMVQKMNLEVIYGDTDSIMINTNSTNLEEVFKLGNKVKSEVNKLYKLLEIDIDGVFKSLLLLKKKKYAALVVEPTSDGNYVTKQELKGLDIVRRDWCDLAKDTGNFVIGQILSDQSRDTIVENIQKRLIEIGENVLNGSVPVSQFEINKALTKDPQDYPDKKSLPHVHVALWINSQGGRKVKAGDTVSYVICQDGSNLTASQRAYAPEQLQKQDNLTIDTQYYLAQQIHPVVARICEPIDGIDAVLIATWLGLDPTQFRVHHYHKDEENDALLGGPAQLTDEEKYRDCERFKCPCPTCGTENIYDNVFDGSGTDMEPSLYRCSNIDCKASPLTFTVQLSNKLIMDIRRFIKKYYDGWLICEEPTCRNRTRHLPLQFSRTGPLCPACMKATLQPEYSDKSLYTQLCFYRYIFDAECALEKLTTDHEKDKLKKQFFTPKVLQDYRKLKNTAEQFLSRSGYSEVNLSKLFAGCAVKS
To be noted: dCTP over dFdCTP; cited from earlier work.

For another data set, the system named is HCV. The data set is described as follows: Antiviral activity of gemcitabine after single treatment in an HCV-infected patient. It is filed as in vivo, Human. An excerpt:
Before the second dosage the baseline viral load was 6.49 log copies/mL. […] The HCV RNA measurement eight hours after the second dosage was 4.04 log copies/mL, indicating an approximate 2.5 log drop in eight hours.

Data set [7] relates to locally advanced or metastatic NSCLC. To be noted: 28-day cycle, cited from earlier work; for objective response rate: first-line NSCLC.
The target of data set [8] is deoxycytidine kinase (dCK) (Cricetulus griseus, UniProt G3I4C0). To be noted: phosphorylation to the monophosphate; partially purified enzyme from CHO cells; cited from earlier work.
Chain of deoxycytidine kinase (dCK) (G3I4C0 entry or part of it): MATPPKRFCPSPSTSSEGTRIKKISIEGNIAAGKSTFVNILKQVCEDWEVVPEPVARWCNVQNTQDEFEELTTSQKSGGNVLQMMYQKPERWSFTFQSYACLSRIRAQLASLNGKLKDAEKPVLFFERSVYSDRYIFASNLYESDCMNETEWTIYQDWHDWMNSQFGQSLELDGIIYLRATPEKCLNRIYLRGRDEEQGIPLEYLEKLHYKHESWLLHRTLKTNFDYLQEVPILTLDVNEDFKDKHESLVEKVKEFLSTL
Another data set relates to friend leukemia virus. To be noted: under conditions that allowed normal weight gain; cited from earlier work.
For data set [9], the system named is stage IIIB or Stage 1V NSCLC. The following applies: 21-day cycle, cited from earlier work.
The subject of data set [10] is host DNA and RNA polymerases. Nature of the data set: Reduction of cellular DNA (rDNA) or RNA (rRNA) levels in Huh7 replicon cells. It counts as cell-based.
In a further data set the test system is HCV replicon RNA. The data set is described as follows: HCV replicon system in Huh7 cells, Q-RT-PCR of replicon RNA. It counts as cell-based. (In general: A replicon is a self-replicating genome or part of one, used to study replication in cells.)
The conditions of data set [11]: human, in vivo; cited from earlier work.
The target in another data set is cytidine deaminase (Homo sapiens, UniProt P32320). The following applies: intracellular cytidine deaminase; cited from earlier work.
Chain of cytidine deaminase (P32320 whole entry, the tested form may be a part): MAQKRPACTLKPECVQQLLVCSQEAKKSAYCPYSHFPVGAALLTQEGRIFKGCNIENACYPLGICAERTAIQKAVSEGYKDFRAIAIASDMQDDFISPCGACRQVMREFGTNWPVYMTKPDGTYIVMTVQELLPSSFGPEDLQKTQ
Data set [12] has as its system locally advanced or metastatic pancreatic cancer. To be noted: 1000 mg/m^2 by 30 min infusion once weekly; 63 patients per arm; cited from earlier work.
The conditions of data set [13]: cited from earlier work.
The next data set deals with pancreatic cancer. To be noted: 63 patients previously treated with 5-FU; cited from earlier work.
The conditions of data set [14]: human, in vivo; cited from earlier work. This is another data set of the same source.

Chain of human DNA polymerase ε (Q07864 whole entry): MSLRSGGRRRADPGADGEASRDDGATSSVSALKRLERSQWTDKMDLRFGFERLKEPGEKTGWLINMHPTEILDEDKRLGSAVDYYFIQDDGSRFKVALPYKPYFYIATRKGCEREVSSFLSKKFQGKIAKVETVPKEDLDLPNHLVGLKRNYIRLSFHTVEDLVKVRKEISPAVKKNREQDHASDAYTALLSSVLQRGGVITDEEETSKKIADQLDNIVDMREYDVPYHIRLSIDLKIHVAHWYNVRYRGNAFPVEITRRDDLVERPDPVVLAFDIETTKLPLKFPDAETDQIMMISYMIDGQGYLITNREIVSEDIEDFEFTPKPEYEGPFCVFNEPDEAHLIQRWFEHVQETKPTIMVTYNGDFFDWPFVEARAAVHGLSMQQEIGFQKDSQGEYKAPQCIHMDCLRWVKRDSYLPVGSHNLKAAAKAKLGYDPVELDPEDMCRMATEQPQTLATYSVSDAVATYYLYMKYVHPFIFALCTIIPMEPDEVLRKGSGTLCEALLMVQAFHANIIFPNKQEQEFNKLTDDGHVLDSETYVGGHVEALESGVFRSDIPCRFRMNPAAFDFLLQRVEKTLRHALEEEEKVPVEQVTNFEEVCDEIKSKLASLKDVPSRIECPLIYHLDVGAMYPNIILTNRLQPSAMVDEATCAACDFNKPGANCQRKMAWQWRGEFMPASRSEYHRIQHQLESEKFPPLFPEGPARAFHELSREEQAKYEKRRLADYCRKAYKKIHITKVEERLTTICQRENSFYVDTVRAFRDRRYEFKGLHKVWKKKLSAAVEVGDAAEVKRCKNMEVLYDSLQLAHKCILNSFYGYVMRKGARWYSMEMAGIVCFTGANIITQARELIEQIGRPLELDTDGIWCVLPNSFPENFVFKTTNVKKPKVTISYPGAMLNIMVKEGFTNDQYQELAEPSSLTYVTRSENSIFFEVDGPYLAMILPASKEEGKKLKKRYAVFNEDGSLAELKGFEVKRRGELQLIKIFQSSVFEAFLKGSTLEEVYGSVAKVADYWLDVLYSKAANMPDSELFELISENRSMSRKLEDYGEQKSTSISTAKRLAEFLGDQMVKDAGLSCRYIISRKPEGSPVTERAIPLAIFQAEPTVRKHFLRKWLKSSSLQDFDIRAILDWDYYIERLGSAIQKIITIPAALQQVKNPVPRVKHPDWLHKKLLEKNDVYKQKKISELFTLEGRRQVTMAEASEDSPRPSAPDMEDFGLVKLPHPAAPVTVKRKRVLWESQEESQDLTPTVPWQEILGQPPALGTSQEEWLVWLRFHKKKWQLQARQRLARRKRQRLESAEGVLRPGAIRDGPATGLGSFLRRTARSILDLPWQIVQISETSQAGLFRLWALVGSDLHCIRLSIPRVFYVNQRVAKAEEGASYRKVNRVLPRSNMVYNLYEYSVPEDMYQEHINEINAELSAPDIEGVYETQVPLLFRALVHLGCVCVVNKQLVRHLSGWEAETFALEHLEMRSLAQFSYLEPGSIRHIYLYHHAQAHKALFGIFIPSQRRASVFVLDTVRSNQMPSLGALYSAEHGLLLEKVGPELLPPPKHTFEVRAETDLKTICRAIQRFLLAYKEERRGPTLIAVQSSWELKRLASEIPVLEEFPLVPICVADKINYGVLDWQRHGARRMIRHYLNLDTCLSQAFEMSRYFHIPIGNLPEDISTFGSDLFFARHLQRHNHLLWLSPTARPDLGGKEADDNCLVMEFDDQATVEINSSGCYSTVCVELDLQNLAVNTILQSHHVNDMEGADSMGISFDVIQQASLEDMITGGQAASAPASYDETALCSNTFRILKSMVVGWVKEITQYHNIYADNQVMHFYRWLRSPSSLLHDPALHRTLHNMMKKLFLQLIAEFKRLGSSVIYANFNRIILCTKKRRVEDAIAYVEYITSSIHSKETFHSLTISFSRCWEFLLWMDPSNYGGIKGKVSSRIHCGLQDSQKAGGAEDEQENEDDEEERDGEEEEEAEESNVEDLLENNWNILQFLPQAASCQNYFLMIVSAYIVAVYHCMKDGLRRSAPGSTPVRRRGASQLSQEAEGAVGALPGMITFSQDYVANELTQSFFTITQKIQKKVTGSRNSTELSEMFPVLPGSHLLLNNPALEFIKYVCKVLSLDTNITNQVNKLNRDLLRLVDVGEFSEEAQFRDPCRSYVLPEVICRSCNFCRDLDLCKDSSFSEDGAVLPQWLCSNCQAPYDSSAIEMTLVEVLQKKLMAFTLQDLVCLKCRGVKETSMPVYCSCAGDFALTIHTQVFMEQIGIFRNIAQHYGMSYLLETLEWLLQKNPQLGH

As to `Nc1nc(=O)n([C@@H]2CS[C@H](CO)O2)cc1F` [Emtricitabine], in data set [1], the Adverse events entry is on record as “Anemia”. Also, the figures for the EC50 in the data set with HIV-1 [2] and in the data set with HIV-1 [3] were 9 to 500 nM and 0.7 to 10 nM, respectively. Besides, the “Parent drug plasma-serum half-life” value in data set [4] was 1.0 to 4.0 h. For the same molecule, in the data set on HIV-1 [5] (at 14 days), the “Impact of monotherapy: log reduction” value is listed as “˜2 log reduction at 14 days”.
As to `NC(=O)c1ncn([C@@H]2O[C@H](CO)[C@@H](O)[C@H]2O)n1` [Ribavirin], the teratogenicity entry in [6] is reported as “teratogenic”.
`Nc1ccn([C@@H]2O[C@H](COP(=O)(O)OP(=O)(O)OP(=O)(O)O)[C@@H](O)C2(F)F)c(=O)n1` [dFdCTP]: the “preference of the polymerase for the normal nucleotide (dCTP)” value at human DNA polymerase ε and at human DNA polymerase a was 20 fold throughout.
For the molecule Abacavir, in [1], the Adverse events entry is given as “Nausea, vomiting, headache, (hypersensi- tivity reaction)”. Also, the EC50 with HIV-1 [2] is 4100 nM. Further, in data set [4], the “Parent drug plasma-serum half-life” value is 1.0 to 2.0 h. Besides, the “Impact of monotherapy: log reduction in HIV-1 RNA” value with HIV-1 [5] (at four weeks) was “Approximate 1.8 log reduction in HIV-1 RNA at four weeks”.
Take `Nc1ccn([C@@H]2O[C@H](CO)[C@@H](O)C2(F)F)c(=O)n1` [gemcitabine HCl]: the tolerance result with HCV (1200 mg in 1000 minutes associated with oxaliplatine) is listed as “acceptable”.
Turning to `N.N.[Cl][Pt][Cl]` [cisplatin], the objective response rate in data set [7] was 10%.
As for `Nc1ccn([C@H]2C[C@H](O)[C@@H](CO)O2)c(=O)n1` [deoxycytidine], the Km in data set [8] is 1.6 µM.
On to `Nc1ccn([C@@H]2O[C@H](CO)[C@@H](O)C2(F)F)c(=O)n1` [cytidine analog], for which, in the data set on friend leukemia virus, the inhibition of polyerythroblastosis is 90% and the “inhibition of spleen enlargement” value is 90%.
For `Nc1ccn([C@H]2CC[C@@H](CO)O2)c(=O)n1` [Zalcitabine, 2′,3′-dideoxycytidine], the Adverse events entry in data set [1] is recorded as “Peripheral neuropathy, mouth ulcers”. Moreover, the figures for the EC50 in the data set with HIV-1 [2] and in the data set on HIV-1 [3] were 30 to 50 nM and 2 to 160 nM, respectively. Besides, in data set [4], the “Parent drug plasma-serum half-life” value was 1.0 to 3.0 h. Further, the “Impact of monotherapy (comparison in words)” value in the data set with HIV-1 [5] (in vivo) was “Less effective than either ddI or AZT”.
For gemcitabine plus cisplatin, in data set [7], the objective response rate is on record as 26%; the “Median survival time and median time to disease progression compared to cisplatin alone” value was “significantly greater”. Moreover, the “median time to disease progression and objective response rates compared to etoposide plus cisplatin” value in data set [9] was “significantly greater”. Further, the “survival, difference between the two treatment arms” value in data set [9] (vs etoposide plus cisplatin) is “no significant difference”.
As to `Cc1cn([C@H]2CC(N=[N+]=[N-])[C@@H](CO)O2)c(=O)[nH]c1=O` (stereo partly shown) [Zidovudine, 1-(3′Azido-2′-deoxyribosyl)thymine], the Adverse events entry in data set [1] was “Nausea, vomiting, headache, neutropenia, anemia, insomnia”. Moreover, the EC50 in the data set on HIV-1 [2] is 5 to 6 nM; in the data set with HIV-1 [3], 4 to 25 nM. The “Parent drug plasma-serum half-life” value in [4] was 0.8 to 1.9 h. Also, the “Impact of monotherapy: log decrease in HIV-1 RNA” value in the data set with HIV-1 [5] is listed as “One log decrease in HIV-1 RNA for six months to one year 1”.
In the case of `O=c1ccn([C@@H]2O[C@H](CO)[C@@H](O)C2(F)F)c(=O)[nH]1` [dFdU, 2′,2′-difluorodeoxyuridine], the “dCt rRNA” value in data set [10] (7.0 μM) worked out at 1.96. Also, in the data set on HCV replicon RNA (7.0 μM), the “dCT HCV” value is listed as 6.39. Also, in the data set on HCV replicon RNA (7.0 μM, HCV dCt minus rRNA dCt), the ddct was 4.42.
In the case of `Nc1ccn([C@@H]2O[C@H](CO)[C@@H](O)C2(F)F)c(=O)n1` [Gemcitabine, β-D-2′,2′-difluorocytidine], the plasma protein binding entry in data set [11] is on record as “negligible”. Also, on cytidine deaminase, the Km is 96 µM. This molecule also returned a baseline viral load with HCV (before the second dosage, day after first 1200 mg dose) of 6.49 log copies/mL. In the data set on HCV (eight hours after the second dosage (approximately 700 mg)), the “HCV RNA measurement” value was 4.04 log copies/mL. In addition, in the data set with HCV (in eight hours after the second dosage), the “drop in HCV RNA” value is given as ~2.5 log. Moreover, the IC50 in data set [10] (Homo sapiens, Huh-7) came out at 240 nM. For the same molecule, the “clinical benefit response, survival, and time to disease progression compared to 5-FU” value in data set [12] was “statistically significant increases”. Further, the half-life in data set [13] (after short infusion (<70 min)) was 0.533 to 1.53 h. Also, in [13] (human, in vivo), the Volume of distribution is listed as 370 L/m^2. In the data set with pancreatic cancer, the “clinical benefit response rate” value is listed as 27% and the median survival is listed as 3.9 months. Further, in data set [14], the “ADVERSE EFFECTS” value is “Thrombocytopenia,” and the dose-limiting toxicity entry is “myelosuppression”. For the same molecule, the “reduction of the replicon HCV RNA (FIG. 2)” value with HCV replicon RNA (4-days incubation) was “dose-dependant reduction”. The EC90 with HCV replicon RNA (Hepatitis C virus, Huh-7, 96 h, Huh7 cells, 4-days incubation, read-out: EC90 (1-log reduction of replicon RNA) (converted)) is ~70 nM. Besides, the EC50 with HCV replicon RNA (Hepatitis C virus, Huh-7, Huh7 cells harboring self-replicating HCV RNA, read-out: EC50, reduction of HCV RNA levels) was 40 nM. Besides, in data set [8], the Km is 3.6 µM.
With `O=c1[nH]cnc2c1ncn2[C@H]1CC[C@@H](CO)O1` [Didanosine, 2′,3′-dideoxyinosine], the Adverse events result in [1] is on record as “Diarrhea, nausea, vomiting, peripheral neuropathy, pancreatitis”. The EC50 in the data set on HIV-1 [2] was 2 to 20 nM; in the data set with HIV-1 [3], 10 nM. For the same molecule, in data set [4], the “Parent drug plasma-serum half-life” value is 0.6 to 2.7 h. The “Impact of monotherapy: log decrease in HIV-1 RNA” value in the data set on HIV-1 [5] was “˜0.8 log decrease in HIV-1 RNA for six months to one year”.
Consider `Cc1cn([C@H]2C=C[C@@H](CO)O2)c(=O)[nH]c1=O` [Stavudine, 3′-deoxy-2′,3′-didehycrothymidine], for which the Adverse events result in data set [1] was “Peripheral neuropathy”. Besides, the figures for the EC50 in the data set with HIV-1 [2] and in the data set with HIV-1 [3] were 1 to 25000 nM and 9 nM, respectively. In data set [4], the “Parent drug plasma-serum half-life” value is 1.0 to 1.6 h. In addition, in the data set with HIV-1 [5], the “Impact of monotherapy: log decrease in HIV-1 RNA” value is “˜0.8 log decrease in HIV-1 RNA for six months to one year”.

Source of the values: patent publication US20030225029A1 (priority 2002, published 2003).
